Laboratory results: patent US12178871B2 (priority 2018, dated 2024)

Columns and labels:
[1] = test system: mouse lung cancer LL2 cell; assay: LL2 lung cancer tumor-bearing mouse model; type: in vivo; conditions: cisplatin 5 mg/kg, tail vein injection once a week
Text: The tumor cells in this model grew rapidly, with tumor volume of 2201.9 mm^3±68.01 mm^3 on the 14th day after the inoculation and the experiment was over. […] As explanation, the cisplatin group is more likely to show efficacy in this model with very rapid cell division.

[2] = in vivo; cited from earlier work
[3] = test system: influenza virus subtype A mice-lung adaptive strain FM1; conditions: mouse, in vivo

N.N.[Cl][Pt][Cl] [cisplatin]
T/Cb (%) [1]: 28.9% | TV at day 14 [1]: 637.79 ± 62.87 mm^3

polyinosinic-polycytidylic acid with poly-L-lysine and carboxymethyl cellulose [PICLC]
fever [2]: 100% | hypotension [2]: 50% | myalgia [2]: 50%

NC(=O)c1ncn([C@@H]2O[C@H](CO)[C@@H](O)[C@H]2O)n1 [Ribavirin]
X^2 [3]: 1.64
